What was measured:
[1] = biological target: T1, MAO-A (Homo sapiens, UniProt P21397); assay: MAO-A enzyme inhibition assay (kynuramine substrate); assay type: biochemical; conditions: mean ± SD; for remaining activity at 10 µM: 10 μM compound, read-out: Residual Activities at 10 μM (%) MAO-A
T1 construct: purchased Sigma Aldrich
T1 sequence (P21397 1-527): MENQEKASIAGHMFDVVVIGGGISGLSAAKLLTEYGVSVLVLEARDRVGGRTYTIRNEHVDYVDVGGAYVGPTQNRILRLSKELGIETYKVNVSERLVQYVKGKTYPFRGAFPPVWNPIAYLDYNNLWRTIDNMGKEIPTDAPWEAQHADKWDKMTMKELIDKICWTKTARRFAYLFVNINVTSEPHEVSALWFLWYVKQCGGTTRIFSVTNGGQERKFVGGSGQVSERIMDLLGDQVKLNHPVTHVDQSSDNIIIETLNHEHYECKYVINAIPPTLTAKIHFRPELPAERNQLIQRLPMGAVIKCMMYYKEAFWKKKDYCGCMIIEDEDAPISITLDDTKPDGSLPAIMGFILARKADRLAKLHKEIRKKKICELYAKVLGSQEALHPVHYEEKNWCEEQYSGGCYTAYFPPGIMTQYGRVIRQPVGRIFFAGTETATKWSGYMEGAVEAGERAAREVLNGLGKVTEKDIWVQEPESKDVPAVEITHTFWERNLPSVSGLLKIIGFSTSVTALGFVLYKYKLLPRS
Protocol: (§1) MAO assays were performed as described previously, i.e., ~0.09 U/mL of MAO-A and MAO-B were reacted with 0.06 mM kynuramine and 0.3 mM benzylamine, respectively, in 50 mM sodium phosphate (pH 7.2). […] For inhibition assay, the compounds were dissolved in DMSO and added into the reaction mixture. The final concentration of DMSO in the reaction mixture was less than 1% to avoid solvent disturbance.

[2] = biological target: T2, MAO-B (Homo sapiens, UniProt P27338); assay: MAO-B enzyme inhibition assay (benzylamine substrate); assay type: biochemical; conditions: for remaining activity at 10 µM: 10 μM compound, read-out: Residual Activities at 10 μM (%) MAO-B; for remaining activity at 10 µM / IC50: mean ± SD; for SI (MAO): MAO-B selectivity over MAO-A, based on IC50 values
T2 construct: purchased Sigma Aldrich
T2 sequence (P27338 1-520): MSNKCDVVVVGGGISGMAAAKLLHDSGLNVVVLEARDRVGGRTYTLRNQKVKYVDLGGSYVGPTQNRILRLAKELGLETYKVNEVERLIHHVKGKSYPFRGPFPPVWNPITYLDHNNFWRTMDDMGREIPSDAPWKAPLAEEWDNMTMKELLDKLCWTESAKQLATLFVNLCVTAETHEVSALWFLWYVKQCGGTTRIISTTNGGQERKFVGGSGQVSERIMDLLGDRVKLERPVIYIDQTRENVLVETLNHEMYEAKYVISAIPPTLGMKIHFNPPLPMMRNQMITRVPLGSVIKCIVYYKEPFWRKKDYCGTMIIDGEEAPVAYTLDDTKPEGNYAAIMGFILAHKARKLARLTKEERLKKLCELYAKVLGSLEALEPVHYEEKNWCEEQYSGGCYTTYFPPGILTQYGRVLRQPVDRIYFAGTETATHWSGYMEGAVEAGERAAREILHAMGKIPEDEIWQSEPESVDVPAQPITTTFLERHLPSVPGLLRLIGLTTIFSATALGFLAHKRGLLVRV
Protocol: as §1

[3] = biological target: AChE (Electrophorus electricus, UniProt O42275); assay: AChE inhibition assay (Ellman method, ATCI); assay type: biochemical; conditions: for Residual Activities at 10 μM (%) AChE / remaining activity at 10 µM: 10 μM compound, mean ± SD; for SI (ChE): AChE selectivity over BChE, based on IC50 values; for remaining activity at 10 µM: read-out: Residual Activities at 10 μM (%) AChE
Sequence of AChE (O42275 24-633): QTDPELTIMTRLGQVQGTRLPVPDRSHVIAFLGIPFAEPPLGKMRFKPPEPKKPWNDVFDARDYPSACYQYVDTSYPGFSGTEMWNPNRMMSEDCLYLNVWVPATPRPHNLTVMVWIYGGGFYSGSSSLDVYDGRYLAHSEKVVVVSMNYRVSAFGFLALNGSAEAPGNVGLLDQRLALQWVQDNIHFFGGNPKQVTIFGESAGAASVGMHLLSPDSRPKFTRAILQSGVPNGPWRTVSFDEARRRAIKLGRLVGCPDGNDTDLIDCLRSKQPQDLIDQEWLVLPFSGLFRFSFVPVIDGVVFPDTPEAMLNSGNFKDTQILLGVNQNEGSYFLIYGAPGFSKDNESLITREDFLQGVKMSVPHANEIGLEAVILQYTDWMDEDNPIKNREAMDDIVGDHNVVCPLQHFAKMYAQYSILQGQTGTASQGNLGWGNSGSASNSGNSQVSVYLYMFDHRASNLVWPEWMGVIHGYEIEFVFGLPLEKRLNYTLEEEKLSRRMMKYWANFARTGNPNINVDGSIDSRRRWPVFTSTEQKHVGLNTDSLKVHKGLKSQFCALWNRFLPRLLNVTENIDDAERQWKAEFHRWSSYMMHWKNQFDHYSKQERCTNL
Protocol: (§2) For measuring cholinesterase (ChE) activity, the Ellman method was employed with a slight modification. The AChE and BchE with ~0.02 U/mL were reacted with 0.5 mM ATCI and BTCI, respectively, followed by addition of 0.5 mM DTNB. […] In the inhibition assay, the enzyme and the compound were preincubated in reaction buffer for 15 min, followed by adding substrates and DTNB.

[4] = biological target: BChE (Equus caballus, UniProt P81908); assay: biochemical; conditions: read-out: Residual Activities at 10 μM (%) BChE
Sequence of BChE (P81908 whole entry): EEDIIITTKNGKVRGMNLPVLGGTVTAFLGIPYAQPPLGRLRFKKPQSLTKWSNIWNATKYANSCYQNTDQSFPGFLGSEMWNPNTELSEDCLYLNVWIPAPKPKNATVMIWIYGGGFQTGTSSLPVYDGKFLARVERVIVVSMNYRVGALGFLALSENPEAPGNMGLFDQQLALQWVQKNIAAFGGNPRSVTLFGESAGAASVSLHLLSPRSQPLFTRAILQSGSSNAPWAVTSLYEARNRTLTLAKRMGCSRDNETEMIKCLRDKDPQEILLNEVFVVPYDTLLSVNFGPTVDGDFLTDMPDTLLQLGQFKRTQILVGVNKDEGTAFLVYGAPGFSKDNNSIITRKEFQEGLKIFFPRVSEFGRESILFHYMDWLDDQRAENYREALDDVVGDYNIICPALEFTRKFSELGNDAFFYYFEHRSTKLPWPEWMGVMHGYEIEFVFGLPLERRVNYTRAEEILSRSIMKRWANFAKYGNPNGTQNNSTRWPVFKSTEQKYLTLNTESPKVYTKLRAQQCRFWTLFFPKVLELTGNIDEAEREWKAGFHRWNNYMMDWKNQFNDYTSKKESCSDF
Protocol: as §2

| Compound | remaining activity at 10 µM [1] [%] | IC50 [1] [µM] | remaining activity at 10 µM [2] [%] | SI (MAO) [2] | IC50 [2] [µM] | Residual Activities at 10 μM (%) AChE [3] [%] | SI (ChE) [3] | remaining activity at 10 µM [4] [%] | remaining activity at 10 µM [3] [%] |
| --- | --- | --- | --- | --- | --- | --- | --- | --- | --- |
| CN1CCN(c2ccc(C(=O)/C=C/c3ccc(N(C)C)cc3)cc2)CC1 [Compound 2f, (E)-3-(4-(dimethylamino)phenyl)-1-(4-(4-methylpiperazin-1-yl)phenyl)prop-2-en-1-one] | 83.6 ± 4.22 | > 40 | 21.3 ± 3.77 | 12.16 | 3.29 ± 0.08 | 26.37 ± 1.85 | >13.20 | 76.5 ± 3.35 |  |
| COc1cc(/C=C/C(=O)c2ccc(N3CCN(C)CC3)cc2)ccc1F [Compound 2m, (E)-3-(4-fluoro-3-methoxyphenyl)-1-(4-(4-methylpiperazin-1-yl)phenyl)prop-2-en-1-one] | 78.8 ± 1.66 | > 40 | 39.9 ± 6.26 | 5.92 | 6.76 ± 0.82 |  | 4.18 | 66.8 ± 2.1 | 27.6 ± 1.9 |
| CN1CCN(c2ccc(C(=O)/C=C/c3ccc(OC(F)F)cc3)cc2)CC1 [Compound 2h, (E)-3-(4-(difluoromethoxy)phenyl)-1-(4-(4-methylpiperazin-1-yl)phenyl)prop-2-en-1-one] | 55.2 ± 4.12 | > 40 | 17.3 ± 3.77 | 6.51 | 6.14 ± 0.43 |  | >6.87 | 73.9 ± 3.35 | 38 ± 0.92 |
| CC(C)c1ccc(/C=C/C(=O)c2ccc(N3CCN(C)CC3)cc2)cc1 [Compound 2e, (E)-3-(4-isopropylphenyl)-1-(4-(4-methylpiperazin-1-yl)phenyl)prop-2-en-1-one] | 60.6 ± 3.98 | 16.2 ± 1.74 | 44.1 ± 3.04 | 1.94 | 8.36 ± 0.39 | 17.75 ± 1.85 | 3.83 | 49.3 ± 1.28 |  |
| CN1CCN(c2ccc(C(=O)/C=C/c3cccc(C(F)(F)F)c3)cc2)CC1 [Compound 2a, (E)-1-(4-(4-methylpiperazin-1-yl)phenyl)-3-(3-(trifluoromethyl)phenyl)prop-2-en-1-one] | 118 ± 7.73 | > 40 | 12.8 ± 0.79 | 15.50 | 2.58 ± 0.19 |  | 2.44 | 58.6 ± 6.8 | 34.9 ± 5.19 |
| CN1CCN(c2ccc(C(=O)/C=C/c3cc(C(F)(F)F)cc(C(F)(F)F)c3)cc2)CC1 [Compound 2j, (E/Z)-3-(3,5-bis(trifluoromethyl)phenyl)-1-(4-(4-methylpiperazin-1-yl)phenyl)prop-2-en-1-one] | 97.1 ± 4.04 | > 40 | 67.8 ± 5.36 | 2.55 | 15.7 ± 1.17 |  | >2.60 | 86 ± 1.04 | 57.1 ± 5.39 |
| CN1CCN(c2ccc(C(=O)/C=C/c3ccc(C#N)cc3)cc2)CC1 [Compound 2d, (E)-4-(3-(4-(4-methylpiperazin-1-yl)phenyl)-3-oxoprop-1-en-1-yl)benzonitrile] | 72.3 ± 2.5 | > 40 | 16.7 ± 4.71 | 18.18 | 2.2 ± 0.06 |  | 10.38 | 71.5 ± 5.25 | 24.3 ± 0.95 |
| CN1CCN(c2ccc(C(=O)/C=C/c3ccc(F)cc3)cc2)CC1 [Compound 2c, (E)-3-(4-fluorophenyl)-1-(4-(4-methylpiperazin-1-yl)phenyl)prop-2-en-1-one] | 103 ± 8.84 | > 40 | 22.7 ± 1.61 | 13.42 | 2.98 ± 0.18 |  | 1.79 | 49.7 ± 3.7 | 49.4 ± 4.66 |

Reference: article PMC9860728, “Identification of New N-methyl-piperazine Chalcones as Dual MAO-B/AChE Inhibitors” (Pharmaceuticals, 2023)
